Measured values taken from article PMC4555179, “Molecular insights into Zeaxanthin-dependent quenching in higher plants” (Scientific Reports, 2015).

What was measured:
CP24 (CP24-his tag) [1] = target: T1, CP24 (CP24-his tag) (Arabidopsis thaliana, UniProt Q9LMQ2); assay: co-purified pigment, HPLC and absorption fit of acetone extract; assay type: binding; details: complex from control plants; endogenous pigment
T1 construct: gene LHCB6; mature thylakoid protein (transit peptide removed in vivo), C-terminal His tag kept; purified from plant thylakoids by sucrose gradient (Band 2) and Ni column; monomer
T1 sequence (Q9LMQ2 50-258): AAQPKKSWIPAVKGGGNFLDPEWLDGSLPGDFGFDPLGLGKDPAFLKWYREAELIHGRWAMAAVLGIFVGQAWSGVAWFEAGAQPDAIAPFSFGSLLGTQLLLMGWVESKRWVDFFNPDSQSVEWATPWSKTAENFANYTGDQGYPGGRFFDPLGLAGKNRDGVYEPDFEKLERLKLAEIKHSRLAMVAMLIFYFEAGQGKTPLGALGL

CP24 (CP24-his tag) [2] = target: T1, CP24 (CP24-his tag); assay: as above; assay type: binding; details: complex from light-stressed plants (30 min high light), pH 5.5, 4 °C; endogenous pigment; peripheral, not in internal L1/L2 sites
Source text: co-purified pigment, HPLC and absorption fit of acetone extract on CP24 (CP24-his tag)

| Compound | V (CP24 (CP24-his tag) [1]) | Z (CP24 (CP24-his tag) [2]) |
| --- | --- | --- |
| CC1=C[C@H](O)CC(C)(C)[C@H]1/C=C/C(C)=C/C=C/C(C)=C/C=C/C=C(C)/C=C/C=C(C)/C=C/C1=C(C)C[C@@H](O)CC1(C)C [L, lutein] | 0.89 ± 0.02 mol per monomer (normalised to 10 Chl) |  |
| CC(/C=C/C=C(C)/C=C/[C@@]12O[C@]1(C)C[C@@H](O)CC2(C)C)=C\C=C\C=C(C)\C=C\C=C(C)\C=C\[C@@]12O[C@]1(C)C[C@@H](O)CC2(C)C [V, violaxanthin] | 0.89 ± 0.02 mol per monomer (normalised to 10 Chl) |  |
| CC1=C(/C=C/C(C)=C/C=C/C(C)=C/C=C/C=C(C)/C=C/C=C(C)/C=C/C2=C(C)C[C@@H](O)CC2(C)C)C(C)(C)C[C@H](O)C1 [Z, zeaxanthin] |  | 0.20 ± 0.00 mol per monomer (normalised to 10 Chl) |
